Assay results reported in US20120283096A1, “AGENT FOR IMPROVING PLANT GROWTH, SEEDS, AND METHOD FOR IMPROVING PLANT GROWTH” (Incorporated Administrative Agency National Agricu lture …, priority 2010, published 2012).
Where two headings read alike, the source gives them in different places.

Columns and labels:
decay of paddy seeds = experiment: Decay-inhibiting effect in tank farming without soil (Example 3); details: for Soaking: Inhibition of decay, Concentration of Molybdenum in Solution: paddy seeds left soaked two weeks in the solution at 30° C., no soil, water did not rot, no rotten smell; for Ten-minute soaking: Inhibition of decay, Concentration of Molybdenum in Solution: seeds soaked ten minutes in the solution, then two weeks in water at 30° C.; for Inhibition of decay, Amount of molybdenum or tungsten added to seed: seeds covered with substance, soaked two weeks in water at 30° C.
Experimental: (§1) The decay-inhibiting effect of molybdenum-containing substances in tank farming without soil was examined.
(§2) The possibility of growth and the inhibition of decay were determined in the same manner as above.

[1] = in water, powder, cited from earlier work
paddy rice [2] = experiment: Seedling establishment of coated paddy seeds in submerged soil containers (Examples 4-1 to 4-4b, FIGS. 11, 14-19c); format: in vivo; details: dry seeds, 25 wt % calcium peroxide alone at 0.1 or less time the weight of dry seed, 30° C., FIG. 19c
Experimental: The germinated paddy seeds were soaked for one minute in a tenfold diluted solution of a commercially available laundry starch (manufactured by Rocket Soap Co., Ltd.; My Laundry Starch) containing approximately a little less than 10% by weight of polyvinyl alcohol, centrifuged at 1000 rpm for removal of the extra solution, and, immediately after that, lightly covered with different amounts of ammonium molybdophosphate, whereby seeds with different amounts of ammonium molybdophosphate were prepared.
(§3) It should also be noted that in each of FIGS. 14 through 15b, the horizontal axis represents the number of moles (mmol) of molybdenum or tungsten that adhered per gram of dry seed. In each of FIGS. 14 through 15b, the dots correspond to the numbers of moles of 0, 0.02, 0.05, 0.1, 0.2, 0.5, 1, and 2 mmol, starting from the left.
as §3, with “should” for “should also”, “16” for “14”, “18,” for “15b,”, “molybdenum” for “molybdenum or tungsten”
It should be noted that in FIG. 19a, the horizontal axis represents the number of moles (mmol) of molybdenum that adhered per gram of dry seed. In FIG. 19a, the dots correspond to the numbers of moles of 0, 0.02, 0.05, 0.1, 0.2, 0.5, 1, and 2 mmol, starting from the left.
The resulting seeds were allowed to spend time in a sufficiently wet condition so that the iron rusted, and then allowed to further spend overnight. […] Six containers were allotted for each condition, and the proportion of seedling establishment and the standard error were examined. It should be noted that in FIG. 19b, the horizontal axis represents the number of moles (mmol) of molybdenum that adhered per gram of dry seed. In FIG. 19b, the dots correspond to the numbers of moles of 0, 0.02, 0.05, 0.1, 0.2, 0.5, 1, and 2 mmol, starting from the left.
Six containers were allotted for each condition, and the proportion of seedling establishment and the standard error were examined. It should be noted that in FIG. 19c, the horizontal axis represents the actual weight ratios of 25 wt % calcium peroxide that adhered with respect to the weight of dry seed. In FIG. 19c, the dots correspond to the actual weight ratios of 25 wt % calcium peroxide of 0, 0.01, 0.02, 0.05, 0.1, 0.2, 0.5, and 1 time, starting from the left.

paddy seeds = experiment: Possibility of growth of paddy seeds in tank farming without soil (Example 3)
Experimental: as §1, §2

paddy rice [3] = experiment: Seedling establishment of paddy seeds soaked in solutions of readily-soluble molybdenum substances (Example 2-2, FIGS. 8 and 13); format: in vivo
Experimental: The examination of the proportion of seedling establishment was carried out under the same conditions as the examination whose results are shown in FIG. 8, except for the molybdenum concentration and the duration of soaking.

sulfide ions = experiment: Inhibiting effect of molybdenum added to soil on sulfide ions (Example 1-3, FIG. 4); details: supernatant after shaking soil, 30° C., two weeks after seeding
Experimental: An inhibiting effect of a molybdenum-containing substance on sulfide ions was examined in relation to the degrees of generation of ferric sulfide in soil and the concentrations of molybdenum in soil solutions, and the results are shown in FIG. 4. The results shown in FIG. 4 were obtained from samples obtained in the same manner as in Example 1-2. Since methylene blue decolorizes in a reduced state, methylene blue weighing 0.1% of dry soil was added to each sample of soil so that a reduced state of the soil could be detected. The supernatant liquids obtained after shaking the samples of soil thus adjusted had molybdenum concentrations shown in FIG. 4.

sulfide ion generation = experiment: Inhibition of sulfide ion generation, paddy seeds covered with slightly-soluble substances (Example 2-3, FIG. 9); details: approximately 0.1 mmol/g (per dry seeds) in terms of molybdenum or tungsten
Excerpt: The water on slightly germinated seeds was lightly wiped off, and immediately after that, the seeds were put with (lightly covered with) various amounts of the slightly-soluble substances shown in Table 1. […] The number of days for which sulfide ion generation was inhibited and the proportion of seedling establishment were examined.

[4] = seeds covered with substance, soaked two weeks in water at 30° C.
[5] = 3 M molybdenum solution, one-minute soaking, FIG. 13
[6] = paddy seeds left soaked two weeks in the solution at 30° C., no soil, concentration at which sheath leaf elongation was observed
[7] = seeds soaked ten minutes in the solution, then two weeks in water at 30° C.

Compound: Ammonium molybdate tetrahydrate
- Soaking: Inhibition of decay, Concentration of Molybdenum in Solution (decay of paddy seeds): <0.02 M
- Ten-minute soaking: Inhibition of decay, Concentration of Molybdenum in Solution (decay of paddy seeds): 0.1 M

Compound: [Mg+2].[O]=[Mo](=[O])([O-])[O-] [Magnesium molybdate]
- Water solubility [1]: Slightly soluble (has a percentage of solubility of 10% by weight or lower with respect to water)
- Water solubility ([1]; listed as magnesium molybdate): slightly soluble

Compound: [Ca+2].[O-][O-] [calcium peroxide, reference compound]
- proportion of seedling establishment (paddy rice [2]): ≤ 20%

Compound: [Ca+2].[O]=[Mo](=[O])([O-])[O-] [Calcium molybdate]
- Inhibition of decay, Amount of molybdenum or tungsten added to seed (decay of paddy seeds): 0.3 mmol/g
- Possibility of growth, Amount of molybdenum or tungsten added to seed (paddy seeds; [4]): 1 mmol/g

Compound: 12-moblybdo(VI)phosphoric acid n-hydrate [Molybdophosphoric acid]
- Soaking: Inhibition of decay, Concentration of Molybdenum in Solution (decay of paddy seeds): <0.02 M
- Ten-minute soaking: Inhibition of decay, Concentration of Molybdenum in Solution (decay of paddy seeds): 0.1 M
- proportion of seedling establishment (paddy rice [3]; [5]): improvement in proportion of seedling establishment

Compound: [K+].[K+].[O]=[Mo](=[O])([O-])[O-] [Potassium molybdate]
- Soaking: Inhibition of decay, Concentration of Molybdenum in Solution (decay of paddy seeds): 0.3 M
- Ten-minute soaking: Inhibition of decay, Concentration of Molybdenum in Solution (decay of paddy seeds): 0.5 M
- Water solubility [1]: Readily soluble
- Water solubility ([1]; listed as potassium molybdate): readily soluble
- Soaking: Possibility of growth, Concentration of Molybdenum in Solution (paddy seeds; [6]): 0.02 M
- Ten-minute soaking: Possibility of growth, Concentration of Molybdenum in Solution (paddy seeds; [7]): 1< M
- molybdenum concentration at which sulfide ions were effectively inhibited (sulfide ions): ≥ 0.2 mM
- molybdenum concentration up to which black circles were observed in the soil (sulfide ions): ≤ 0.06 mM

Compound: [O]=[W](=[O])=[O] [Tungsten oxide, Tungsten oxide (VI)]
- Inhibition of decay, Amount of molybdenum or tungsten added to seed (decay of paddy seeds): 1< mmol g^−1
- Water solubility [1]: Slightly soluble (has a percentage of solubility of 10% by weight or lower with respect to water)
- number of days for which sulfide ion generation was inhibited (sulfide ion generation): fourteen
- Possibility of growth, Amount of molybdenum or tungsten added to seed (paddy seeds; in vivo): > 1 mmol/g

Compound: [O]=[W](=[O])([OH])[OH] [Tungstic acid]
- Inhibition of decay, Amount of molybdenum or tungsten added to seed (decay of paddy seeds): 1< mmol g^−1
- Water solubility [1]: Slightly soluble (has a percentage of solubility of 10% by weight or lower with respect to water)
- Possibility of growth, Amount of molybdenum or tungsten added to seed (paddy seeds; in vivo): > 1 mmol/g

Compound: Ammonium phosphotungstate trihydrate [Ammonium tungstophosphate]
- Inhibition of decay, Amount of molybdenum or tungsten added to seed (decay of paddy seeds): 1< mmol g^−1
- Possibility of growth, Amount of molybdenum or tungsten added to seed (paddy seeds; in vivo): > 1 mmol/g

Compound: Potassium phosphomolybdate [Potassium molybdophosphate]
- Water solubility [1]: Slightly soluble (has a percentage of solubility of 10% by weight or lower with respect to water)
- Water solubility ([1]; listed as potassium molybdophosphate): slightly soluble

Compound: [H+].[H+].[NH4+].[NH4+].[NH4+].[NH4+].[NH4+].[NH4+].[NH4+].[NH4+].[NH4+].[NH4+].[O]=[W](=[O])([O-])[O-].[O]=[W](=[O])([O-])[O-].[O]=[W](=[O])([O-])[O-].[O]=[W](=[O])([O-])[O-].[O]=[W](=[O])([O-])[O-].[O]=[W](=[O])([O-])[O-].[O]=[W](=[O])=[O].[O]=[W](=[O])=[O].[O]=[W](=[O])=[O].[O]=[W](=[O])=[O].[O]=[W](=[O])=[O].[O]=[W](=[O])=[O] [Ammonium paratungstate, Ammonium tungstate parapentahydrate]
- Inhibition of decay, Amount of molybdenum or tungsten added to seed (decay of paddy seeds): <0.3 mmol/g
- Water solubility [1]: Slightly soluble (has a percentage of solubility of 10% by weight or lower with respect to water)
- Possibility of growth, Amount of molybdenum or tungsten added to seed (paddy seeds; [4]): 0.3 mmol/g

Compound: Sodium phosphomolybdate n-hydrate [Sodium molybdophosphate]
- Soaking: Inhibition of decay, Concentration of Molybdenum in Solution (decay of paddy seeds): <0.02 M
- Ten-minute soaking: Inhibition of decay, Concentration of Molybdenum in Solution (decay of paddy seeds): 0.1 M
- molybdenum concentration of the soaking solution at which proportion of seedling establishment improved (paddy rice [3]; ten-minute soaking, FIG. 8): approximately 1 M
- proportion of seedling establishment (paddy rice [3]; ten-minute soaking, soaking solution 2 M molybdenum): decrease in proportion of seedling establishment
- Water solubility [1]: Readily soluble
- Water solubility ([1]; listed as sodium molybdophosphate): readily soluble
- Soaking: Possibility of growth, Concentration of Molybdenum in Solution (paddy seeds; in vivo): <0.02 M
- Ten-minute soaking: Possibility of growth, Concentration of Molybdenum in Solution (paddy seeds; in vivo): > 1 M

Compound: [O]=[Mo](=[O])([OH])[OH] [Molybdic acid]
- Inhibition of decay, Amount of molybdenum or tungsten added to seed (decay of paddy seeds): <0.02 mmol/g
- Water solubility [1]: Slightly soluble (has a percentage of solubility of 10% by weight or lower with respect to water)
- Water solubility ([1]; listed as molybdic acid): slightly soluble
- number of days for which sulfide ion generation was inhibited (sulfide ion generation): fourteen
- Possibility of growth, Amount of molybdenum or tungsten added to seed (paddy seeds; in vivo): > 2 mmol/g

Compound: Silicomolybdic acid n-hydrate [Molybdosilicic acid]
- proportion of seedling establishment (paddy rice [3]; [5]): improvement in proportion of seedling establishment
- Water solubility [1]: Readily soluble
- Water solubility ([1]; listed as molybdosilicic acid): readily soluble

Compound: O.O.[Na+].[Na+].[O]=[Mo](=[O])([O-])[O-] [Sodium molybdate, Sodium molybdate dihydrate]
- Soaking: Inhibition of decay, Concentration of Molybdenum in Solution (decay of paddy seeds): 0.1 M
- Ten-minute soaking: Inhibition of decay, Concentration of Molybdenum in Solution (decay of paddy seeds): 0.3 M
- Water solubility ([1]; dihydrate): Readily soluble
- Water solubility ([1]; listed as sodium molybdate, dihydrate): readily soluble
- Soaking: Possibility of growth, Concentration of Molybdenum in Solution (paddy seeds; [6]): 0.03 M
- Ten-minute soaking: Possibility of growth, Concentration of Molybdenum in Solution (paddy seeds; [7]): 1< M
